According to ChEMBL document CHEMBL5214988, “Design, Synthesis, and Biological Evaluation of 5-Formyl-pyrrolo[3,2-b]pyridine-3-carboxamides as New Selective, Potent, and Reversible-Covalent FGFR4 Inhibitors” (J Med Chem, 2022):

What was measured:
[1] = AUC (0 to t) in ICR mouse at 2 mg/kg, iv measured upto 24 hrs by LC-MS/MS analysis; type: ADME, organism-based; design: time < 24 hrs, dose 2 mg/kg, route iv; settings: in vivo
[2] = Half life in ICR mouse at 2 mg/kg, iv measured upto 24 hrs by LC-MS/MS analysis; type: ADME, organism-based; settings: in vivo
[3] = Cmax in ICR mouse at 2 mg/kg, iv measured upto 24 hrs by LC-MS/MS analysis; type: ADME, organism-based; design: time < 24 hrs, dose 2 mg/kg, route iv; settings: in vivo
[4] = AUC (0 to infinity) in ICR mouse at 2 mg/kg, iv measured upto 24 hrs by LC-MS/MS analysis; type: ADME, organism-based; design: time < 24 hrs, dose 2 mg/kg, route iv; settings: in vivo
[5] = Observed clearance in ICR mouse at 2 mg/kg, iv measured upto 24 hrs by LC-MS/MS analysis; type: ADME, organism-based; settings: in vivo
[6] = MRT (0 to t) in ICR mouse at 2 mg/kg, iv measured upto 24 hrs by LC-MS/MS analysis; type: ADME, organism-based; settings: in vivo
[7] = Cmax in ICR mouse at 10 mg/kg, po measured upto 24 hrs by LC-MS/MS analysis; type: ADME, organism-based; design: dose 10 mg/kg, time < 24 hrs, route po; settings: in vivo
[8] = Tmax in ICR mouse at 2 mg/kg, iv measured upto 24 hrs by LC-MS/MS analysis; type: ADME, organism-based; settings: in vivo
[9] = MRT (0 to t) in ICR mouse at 10 mg/kg, po measured upto 24 hrs by LC-MS/MS analysis; type: ADME, organism-based; settings: in vivo
[10] = Tmax in ICR mouse at 10 mg/kg, po measured upto 24 hrs by LC-MS/MS analysis; type: ADME, organism-based; settings: in vivo
[11] = Metabolic stability in mouse liver microsomes assessed as half life incubated upto 60 mins in presence of NADPH by LC-MS/MS analysis; type: ADME, Microsome; settings: 1 h
[12] = AUC (0 to infinity) in ICR mouse at 10 mg/kg, po measured upto 24 hrs by LC-MS/MS analysis; type: ADME, organism-based; design: time < 24 hrs, dose 10 mg/kg, route po; settings: in vivo
[13] = AUC (0 to t) in ICR mouse at 10 mg/kg, po measured upto 24 hrs by LC-MS/MS analysis; type: ADME, organism-based; design: dose 10 mg/kg, time < 24 hrs, route po; settings: in vivo
[14] = Oral bioavailability in ICR mouse at 10 mg/kg measured upto 24 hrs by LC-MS/MS analysis; type: ADME, organism-based; settings: in vivo
[15] = Half life in ICR mouse at 10 mg/kg, po measured upto 24 hrs by LC-MS/MS analysis; type: ADME, organism-based; settings: in vivo

## C[C@@H](Oc1cc(NC(=O)c2cn(CCN3CCOCC3)c3cc(Br)c(C=O)nc23)ncc1C#N)c1c(Cl)cncc1Cl
[1]
  AUC(0-t) at 24 h: 702 ng·h/mL
[2]
  half-life: 45.6 min
[3]
  Cmax: 1640 ng/mL
[4]
  AUC(0-inf): 704 ng·h/mL
[5]
  clearance: 49.7 mL/min/kg
[6]
  MRT last at 24 h: 29.4 min
[7]
  Cmax: 13.4 ng/mL
[8]
  Tmax: 4.98 min
[9]
  MRT last at 24 h: 104 min
[10]
  Tmax: 23.4 min
[11]
  t1/2: 696 min
[12]
  AUC(0-inf): 38.6 ng·h/mL
[13]
  AUC(0-t) at 24 h: 29.5 ng·h/mL
[14]
  bioavailability: 1.1%
[15]
  half-life: 196 min
